Consider 14 compounds from publication PMC4550478, “Metronidazole-triazole conjugates: Activity against Clostridium difficile and parasites” (European Journal of Medicinal Chemistry, 2015).

SMILES strings stand for the structures. Converted amounts (≈) assume the structure as drawn. Read-outs that look alike come from different tables or passages of the source. Where only a bound is given, the exact number is not on record here.

Holding throughout (format): cell-based, Clostridium difficile
For assay [1], the system named is C. difficile VPI10463 ATCC 43255. Briefly: MIC broth microdilution, C. difficile VPI 10463. As to conditions: VPI 10463, MtzS, 24 h, median of at least n = 4; for MIC: Clostridioides difficile, ATCC 43255 / ATCC BAA-1803. On the procedure:
(§1) All compounds were tested for activity against a set of anaerobic C. difficile bacteria (630 ATCC BAA-1382, NAP1/027 M7404, NAP1/027 ATCC BAA-1803, VPI10463 ATCC 43255, CD26A54_S and CD26A54_R) and representative ESKAPE pathogens S. aureus (MRSA ATCC 43300), E. coli (ATCC 25922), K. pneumoniae (ATCC 700603), A. baumannii (ATCC 19606) and P. aeruginosa (ATCC 27853) using a standard broth microdilution assay. Selected compounds were tested for activity against H. pylori strains (26695, and clinical isolates MtzS 13/25, MtzR 98/285 and MtzR 13/61) using agar plate dilution, and for antimicrobial activity against […] Gram-positive bacterial strains: Enterococcus faecalis (VanA clinical isolate), Enterococcus faecium (MDR VanA ATCC 51559), Streptococcus pneumoniae (MDR ATCC 700677), S. aureus (MRSA ATCC 43300, MRSA clinical isolate, MRSA/DRSA clinical isolate, GISA NARSA NRS 1, GISA NARSA NRS 17, VRSA NARSA VRS1, VRSA NARSA VRS4 and VRSA NARSA VRS10) using broth microdilution. C. difficile strains were grown at 37 °C in a COY anaerobic chamber (5% H2, 10% CO2, 85% N2). H. pylori strains were grown at 37 °C under a microaerobic atmosphere (5% O2, 10% CO2). All facultative anaerobic bacteria were grown at 37 °C with normal atmospheric oxygen levels. All experiments were performed in duplicate with metronidazole, vancomycin, linezolid or colistin as positive controls for relevant strains (see Table 1). Positive growth control of bacteria and DMSO as well as a negative control of only media were included for every plate. Full assay details are provided in the supplementary information.
(§2) C. difficile ATCC BAA-1382, ATCC BAA-1803, ATCC 43255 and M7404 heat shocked spore stocks (10 µL) were transferred into the anaerobic chamber and 10 µL streaked onto pre-reduced (at least 2.5 hr in anaerobic chamber) BHIS agar plates supplemented with 0.1% w/v sodium taurocholate (BHIS(TA)). Plates were incubated for 24 hours prior to assay to give colonies of size 1-3mm diameter with characteristic uneven borders.
(§3) The minimum inhibition concentration was determined according to the CLSI Methods with modifications in broth and inoculum for C. difficile according to Babakhani et al.^7,8 Briefly, compounds were prepared to 20X final concentration in 100% water, 60% DMSO and 40% water or 60% DMSO and 40% media. The compounds along with standard antibiotics were serially diluted two-fold across the wells of 96-well non-binding surface plates (Non binding surface, Corning). The plates were placed in the anaerobic chamber overnight to reduce. C. difficile bacteria from BHIS(TA) agar plates were cultured anaerobically in BHIS at 37 °C overnight. A sample of culture was then diluted 40-fold in BHIS broth and incubated at 37 °C for approximately 4.5 hrs. The resultant mid-log phase culture (OD600= 0.5-0.6) was diluted to the final concentration of ~1×10^6 CFU/mL, then 50 µL was added to each well of the compound-containing 96-well plates. This gave final cell concentration of 5×10^5 CFU/mL, final volume 100 µL and 3% maximum DMSO concentration. Compound concentration was typically from 64 to 0.03 µg/mL. An antibiotic standard was included on each 96 well plate as well as a positive growth control (no compound) and sterility control (no bacteria). All the plates were covered and incubated at 37 °C for 24 h. MICs were the lowest concentration showing no visible growth.
On the technique in general: Broth dilution looks for growth in wells or tubes with falling amounts of substance.

Assay [2] concerns C. difficile NAP1/027 ATCC BAA-1803. Briefly: MIC broth microdilution, C. difficile NAP1/027 ATCC BAA-1803. As to conditions: for MIC: Clostridioides difficile. On the procedure:
as §1, §2
as §3, with “All the plates were covered and incubated at 37 °C for 24 h.” left out

Assay [3] concerns C. difficile 630 ATCC BAA-1382. Put plainly: MIC broth microdilution, C. difficile 630. The settings on record: 24 h, median of at least n = 4; for MIC: Clostridioides difficile, ATCCBAA1382, MtzS. On the procedure: as §1, §2, §3
Where [4] appears, read: ATCC 43255 / ATCC BAA-1803, NAP1/027 (footnote c: ATCC 43255), MtzS, 24 h, median of at least n = 4, read-out: MIC C. difficile NAP1/027 (footnote c).
Setting [5] is: ATCCBAA1803, 24 hr incubation, read-out: MIC C. difficile NAP1/027 ATCC BAA-1803 24 hr.
Where [6] appears, read: ATCCBAA1803, 48 hr incubation, read-out: MIC C. difficile NAP1/027 ATCC BAA-1803 48 hr.

As to `Cc1ncc([N+](=O)[O-])n1CCn1cc(CN2CCS(=O)(=O)CC2)nn1` [Compound 4o, 1-(2-(2-methyl-5-nitro-1H-imidazol-1-yl)ethyl)-4-((1,1-dioxothiomorpholin-4-yl)methyl)-1H-1,2,3-triazole], the MIC in assay [1], in assay [2] (setting [4]), in assay [2] (setting [5]), in assay [2] (setting [6]) and in assay [3] was over 64 µg/mL in each case.
Turning to `Cc1ncc([N+](=O)[O-])n1CCn1cc(-c2cncnc2)nn1` [Compound 4i, 1-(2-(2-methyl-5-nitro-1H-imidazol-1-yl)ethyl)-4-(5-pyrimidinyl)-1H-1,2,3-triazole], the MIC was 1 µg/mL (≈ 3.33 µM) in assay [1]; 0.5 to 1 µg/mL (≈ 1.67 to 3.33 µM) in assay [2] (setting [4]); 1 µg/mL (≈ 3.33 µM) in assay [2] (setting [5]); 1 µg/mL (≈ 3.33 µM) in assay [2] (setting [6]); 1 µg/mL (≈ 3.33 µM) in assay [3].
Regarding `COc1ccc(-c2cn(CCn3c([N+](=O)[O-])cnc3C)nn2)cc1` [Compound 4b, 1-(2-(2-methyl-5-nitro-1H-imidazol-1-yl)ethyl)-4-(4-methoxyphenyl)-1H-1,2,3-triazole], the MIC in assay [1] was 0.25 to 0.5 µg/mL (≈ 0.761 to 1.52 µM); in assay [2] (setting [4]), 0.5 µg/mL (≈ 1.52 µM); in assay [2] (setting [5]) it was 0.5 µg/mL (≈ 1.52 µM); in assay [2] (setting [6]), 0.5 µg/mL (≈ 1.52 µM); in assay [3], 0.5 µg/mL (≈ 1.52 µM).
On to `COC(=O)c1cn(CCn2c([N+](=O)[O-])cnc2C)nn1` [Compound 4f, 1-(2-(2-methyl-5-nitro-1H-imidazol-1-yl)ethyl)-4-(methoxycarbonyl)-1H-1,2,3-triazole], for which the MIC in assay [1], in assay [2] (setting [4]), in assay [2] (setting [5]), in assay [2] (setting [6]) and in assay [3] was 1 µg/mL (≈ 3.57 µM) in each case.
As to `Cc1ncc([N+](=O)[O-])n1CCN=[N+]=[N-]` [Compound 3, 1-(2-azidoethyl)-2-methyl-5-nitro-1H-imidazole], the “MIC C. difficile VPI 10463” value in assay [1] worked out at 0.5 µg/mL (≈ 2.55 µM). Also, the “MIC C. difficile NAP1/027 ATCC BAA-1803 24 hr” value in assay [2] (24 hr incubation) is 0.5 µg/mL (≈ 2.55 µM). Besides, the “MIC C. difficile NAP1/027 ATCC BAA-1803 48 hr” value in assay [2] (48 hr incubation) is listed as 1 µg/mL (≈ 5.1 µM). The “MIC C. difficile NAP1/027 (footnote c)” value in assay [2] (NAP1/027 (footnote c: ATCC 43255), MtzS, 24 h, median of at least n = 4) was found to be 0.5 µg/mL (≈ 2.55 µM). Also, the “MIC C. difficile 630” value in assay [3] (MtzS) amounted to 1 µg/mL (≈ 5.1 µM).
Take `Cc1ncc([N+](=O)[O-])n1CCn1cc(Cn2cccn2)nn1` [Compound 4g, 1-(2-(2-methyl-5-nitro-1H-imidazol-1-yl)ethyl)-4-((1H-pyrazol-1-yl)methyl)-1H-1,2,3-triazole]: the MIC was 1 µg/mL (≈ 3.31 µM) in assay [1]; 1 µg/mL (≈ 3.31 µM) in assay [2] (setting [4]); 1 µg/mL (≈ 3.31 µM) in assay [2] (setting [5]); 1 to 2 µg/mL (≈ 3.31 to 6.62 µM) in assay [2] (setting [6]); 1 µg/mL (≈ 3.31 µM) in assay [3].
For the compound `Cc1ncc([N+](=O)[O-])n1CCn1cc(C(=O)O)nn1` [Compound 4s, 1-(2-(2-methyl-5-nitro-1H-imidazol-1-yl)ethyl)-4-(carboxy)-1H-1,2,3-triazole], the MIC in assay [1], in assay [2] (setting [4]), in assay [2] (setting [5]), in assay [2] (setting [6]) and in assay [3] was 64 µg/mL (≈ 240 µM) each time.
Turning to `Cc1ncc([N+](=O)[O-])n1CCn1cc(C(O)c2ccccc2)nn1` (stereo not shown) [Compound 4l, 1-(2-(2-methyl-5-nitro-1H-imidazol-1-yl)ethyl)-4-(1-phenyl-1-hydroxylmethyl)-1H-1,2,3-triazole], the MIC was 0.5 µg/mL (≈ 1.52 µM) in assay [1]; 1 µg/mL (≈ 3.05 µM) in assay [2] (setting [4]); 0.5 to 1 µg/mL (≈ 1.52 to 3.05 µM) in assay [2] (setting [5]); 1 µg/mL (≈ 3.05 µM) in assay [2] (setting [6]); 1 µg/mL (≈ 3.05 µM) in assay [3].
Regarding `Cc1ncc([N+](=O)[O-])n1CCn1cc(-c2ccc(Cl)cc2)nn1` [Compound 4c, 1-(2-(2-methyl-5-nitro-1H-imidazol-1-yl)ethyl)-4-(4-chlorophenyl)-1H-1,2,3-triazole], the MIC is 0.25 µg/mL (≈ 0.751 µM) in assay [1]; 0.25 µg/mL (≈ 0.751 µM) in assay [2] (setting [4]); 0.25 µg/mL (≈ 0.751 µM) in assay [2] (setting [5]); 0.5 µg/mL (≈ 1.5 µM) in assay [2] (setting [6]); 0.5 µg/mL (≈ 1.5 µM) in assay [3].
Take `Cc1ncc([N+](=O)[O-])n1CCn1cc(CCO)nn1` [Compound 4p, 1-(2-(2-methyl-5-nitro-1H-imidazol-1-yl)ethyl)-4-(2-hydroxyethyl)-1H-1,2,3-triazole]: the MIC in assay [1] was 8 µg/mL (≈ 30 µM); in assay [2] (setting [4]), 16 µg/mL (≈ 60.1 µM); in assay [2] (setting [5]), 8 µg/mL (≈ 30 µM); in assay [2] (setting [6]) it was 8 to 16 µg/mL (≈ 30 to 60.1 µM); in assay [3], 8 µg/mL (≈ 30 µM).
`Cc1ncc([N+](=O)[O-])n1CCn1cc(-c2ncccn2)nn1` [Compound 4j, 1-(2-(2-methyl-5-nitro-1H-imidazol-1-yl)ethyl)-4-(2-pyrimidinyl)-1H-1,2,3-triazole]: the MIC in assay [1], in assay [2] (setting [4]), in assay [2] (setting [5]), in assay [2] (setting [6]) and in assay [3] was 2 µg/mL (≈ 6.66 µM) each time.
As for `Cc1ncc([N+](=O)[O-])n1CCn1cc(CN)nn1.O=C(O)C(F)(F)F` [Compound 4t, 1-(2-(2-methyl-5-nitro-1H-imidazol-1-yl)ethyl)-4-(aminomethyl)-1H-1,2,3-triazole trifluoroacetate salt], the MIC in assay [1], in assay [2] (setting [4]), in assay [2] (setting [5]), in assay [2] (setting [6]) and in assay [3] was over 64 µg/mL in each case.
As for `Cc1ncc([N+](=O)[O-])n1CCn1cc(CO)nn1` [Compound 4q, 1-(2-(2-methyl-5-nitro-1H-imidazol-1-yl)ethyl)-4-(hydroxymethyl)-1H-1,2,3-triazole], the MIC in assay [1] was 16 µg/mL (≈ 63.4 µM); in assay [2] (setting [4]), 16 to 32 µg/mL (≈ 63.4 to 127 µM); in assay [2] (setting [5]), 16 µg/mL (≈ 63.4 µM); in assay [2] (setting [6]), 16 to 32 µg/mL (≈ 63.4 to 127 µM); in assay [3] it was 16 µg/mL (≈ 63.4 µM).
For the compound `Cc1ncc([N+](=O)[O-])n1CCn1cc(CCC(=O)O)nn1` [Compound 4r, sodium 1-(2-(2-methyl-5-nitro-1H-imidazol-1-yl)ethyl)-4-(carboxyethyl)-1H-1,2,3-triazole], the MIC in assay [1], in assay [2] (setting [4]), in assay [2] (setting [5]), in assay [2] (setting [6]) and in assay [3] was over 64 µg/mL in each case.
